Laboratory results published in patent US20040127468A1, “Methods and compositions for treating apoptosis associated disorders” (priority 2001, published 2004).

Key:
[1] = system: NGF differentiated PC12 cells; assay: Mitochondrial membrane potential by potentiometric dye fluorescence (TMRM, CMTMR) in NGF differentiated PC12 cells; assay type: cell-based
Experimental: Live cell ΔψM measurement: Cells on polylysine coated coverglass were incubated with 100 nM tetramethylrodaminemethylester (TMRM, Molecular probes, Eugene, Oreg.) or 10 μg/ml JC-1 (Molecular Probes, Eugene, Oreg.) to provide an estimate of ΔψM. The coverslips were transferred to a gas and temperature controlled circulating live cell chamber (Medical Systems Corp., Greenvale, N.Y.). A thermocoupler immersed in the medium maintained the media temperature at 37±0.1° C. TMRM, JC-1 and chloromethyltetramethylrosamine (CMTMR, Molecular probes, Eugene, Oreg.) and JC-1 stained cells were imaged 10 minutes following dye addition and images were collected every 3 minutes for approximately 20 minutes.
Fixed cell ΔψM Measurement. After treatment of NGF differentiated PC12 cells on poly-L-lysine coated 12 mm coverslips, the fixable potentiometric dye, CMTMR, was added at 137 nM for 15 minutes at 37° C. and simultaneous immunocytochemistry was performed. The cells were then rinsed once with warm Dulbecco's PBS prior to overnight fixation with ice cold 4% paraformaldehyde in PB and mounted onto slides with the aqueous mounting medium, Aquamount (Gallard-Schlesinger Ind., Garden City, N.Y.).
Florescence Microscopy. Images were obtained using a Leica TCS4D confocal microscope coupled to an argon-krypton laser or a standard epi-floresence microscope. The images were scanned or imaged using an oil immersion 100×1.4 N.A. objective to minimize focal depth. CMTMR and TMRM treated cells were imaged using 568 nm excitation and detected with 600/30 nm band pass filter. The JC-1 incubated cells were imaged using 488 nm excitation and detected using 530/30 nm band pass and 590 nm long pass filters observed by separate detectors. Image resolution was 512×512×8 bits per pixel. […] To measure the intensity of mitochondrial potentiometric dye fluorescence, pixel intensity measurements from 20-40 mitochondria from each of 50-70 cells per treatment, per experiment were obtained by placing a 3×3 pixel box at 2 points in each mitochondrion. The fluorescence intensity values were automatically exported to an Excel spreadsheet for subsequent analysis in MicroCal Origin (Northampton, Mass.). […]
(§1) The capacity of phosphatidic acid to increase survival, decrease apoptosis and maintain mitochondrial membrane potential was determined by counting intact nuclei as an indicator of cell survival, determining the percentages of cells with nuclear chromatin (DNA) condensation by staining cells with YOYO-1, a nucleic acid binding dye, and measuring mitochondrial potentiometric dye fluorescence by imaging them with florescence microscopy.

[2] = system: NGF differentiated PC12 cells; assay: Survival of NGF differentiated PC12 cells after apoptosis initiating insult (counting intact nuclei); assay type: cell-based
Experimental: PC12 cells (ATCC, Manassas, Md.) were propagated in minimum essential medium (MEM) containing 10% horse serum, 5% fetal bovine serum, 2 mM L-glutamine, 50 units/ml penicillin, and 50 μg/ml streptomycin (MEM with serum, MIS), all purchased from Life Technologies (Rockville, Md.). The cells were grown on 24 well plates (8×10^4 cells/well) for counting of intact nuclei as an estimate of survival, poly-L-lysine treated coverslips (1×10^4 cells/coverslip) for imaging with epiflorescence microscopy or laser confocal scanning microscopy (LCSM) or 100 mm dishes (1×10^6 cells/plate) for protein chemistry. The cells were differentiated for 6 days in M/S supplemented with 100 ng/ml 7S NGF (Upstate Biotech., Lake Placid, N.Y.). MEM with serum and NGF is abbreviated as M/S+N (see (Tatton et al., 1994, J. Neurochemistry, 63:1572-1575; Wadia et al., J. Neuroscience, 1998, 18: 932-947; Carlile et al., 2000, Molecular Pharmacology, 57:2-12) for further details of culture and treatment). Serum and NGF Withdrawal: Following incubation for 6 days in MEM with serum and NGF, cells underwent three successive washes in Hanks' Balanced Salt Solution (HBSS; Life Technologies, Rockville, Md.) to remove NGF and serum-borne trophic agents and then were replaced into MEM with serum and NGF for controls or into MEM without serum and NGF to induce apoptosis by serum and NGF withdrawal. C2-Ceramide, Rotenone, Peroxide, and Atractyloside Exposure: After 6 days of exposure to serum and NGF, cultures maintained in MEM with serum and NGF were treated for 24 hours with either vehicle (HBSS) as a control, or concentrations of C2-ceramide in HBSS varying from 2 to 50 μM, concentrations of rotenone in BSS varying from 2 to 50 nM, concentrations of H2O2 in HBSS varying from 0.01 to 0.25 mM H2O2 or concentrations of atractyloside in HBSS varying from 2 to 20 mM. Both cell survival and the percentages of cells with evidence of apoptotic nuclear degradation were assessed for all treatments. To estimate survival, the cells were seeded at a density of 8×10^4 cells/well in 24 well plates. Cells were harvested 24 hours after treatment and lysed. Intact nuclei were counted using a hemocytometer (see see (Tatton et al., 1994, J. Neurochemistry, 63:1572-1575; Wadia et al., J. Neuroscience, 1998, 18: 932-947; Carlile et al., 2000, Molecular Pharmacology, 57:2-12) for details of treatment and counting methods). The capacity of phosphatidic acid to increase survival, decrease apoptosis and maintain mitochondrial membrane potential was determined by counting intact nuclei as an indicator of cell survival, determining the percentages of cells with nuclear chromatin (DNA) condensation by staining cells with YOYO-1, a nucleic acid binding dye, and measuring mitochondrial potentiometric dye fluorescence by imaging them with florescence microscopy.

[3] = system: cerebellar granule neurons; assay: Nuclei with chromatin condensation (YOYO-1 staining) in cerebellar granule neurons after glutamate; assay type: cell-based, rat; details: apoptosis initiating insult: Glutamate
Experimental: (§2) Cerebellar granule neurons were obtained from postnatal day 7 rat pups by enzymatic digestion and maintained in serum supplemented Eagle's Basal medium. Viable cells were plated at a density of 500,000 cells/ml onto poly-L-lysine coated tissue culture plastic or glass coverslips. Cytosine arabinoside (Ara-C) (10 μM) was added at 24 hours to halt glial proliferation. To induce apoptosis in the cerebellar granule neurons, 10^−4 to 10^−6 M glutamate was added on day 7 to the culture.
(§3) Percentages of cells with apoptotic nuclei were determined for cells grown on poly-L-lysine treated coverslips (density 1×10^4/coverslip). […] The total number of YOYO-1 stained nuclei with chromatin condensation were counted on twenty-five 40× fields for each coverslip, each field chosen by pairs of randomly-generated x-y coordinates. The proportion of nuclei with chromatin condensation were expressed as a percentage of the total number of cells in each field. […]
as §1

[4] = system: cerebellar granule neurons; assay: Survival of cerebellar granule neurons after glutamate (counting intact nuclei); assay type: cell-based, rat; details: apoptosis initiating insult: Glutamate
Experimental: as §2
Both cell survival and the percentages of cells with evidence of apoptotic nuclear degradation were assessed for all treatments. […] Intact nuclei were counted using a hemocytometer (see see (Tatton et al., 1994, J. Neurochemistry, 63:1572-1575; Wadia et al., J. Neuroscience, 1998, 18: 932-947; Carlile et al., 2000, Molecular Pharmacology, 57:2-12) for details of treatment and counting methods).
as §1

[5] = system: NGF differentiated PC12 cells; assay: Nuclei with chromatin condensation (YOYO-1 staining) in NGF differentiated PC12 cells; assay type: cell-based
Experimental: PC12 cells (ATCC, Manassas, Md.) were propagated in minimum essential medium (MEM) containing 10% horse serum, 5% fetal bovine serum, 2 mM L-glutamine, 50 units/ml penicillin, and 50 μg/ml streptomycin (MEM with serum, MIS), all purchased from Life Technologies (Rockville, Md.). The cells were grown on 24 well plates (8×10^4 cells/well) for counting of intact nuclei as an estimate of survival, poly-L-lysine treated coverslips (1×10^4 cells/coverslip) for imaging with epiflorescence microscopy or laser confocal scanning microscopy (LCSM) or 100 mm dishes (1×10^6 cells/plate) for protein chemistry. The cells were differentiated for 6 days in M/S supplemented with 100 ng/ml 7S NGF (Upstate Biotech., Lake Placid, N.Y.). MEM with serum and NGF is abbreviated as M/S+N (see (Tatton et al., 1994, J. Neurochemistry, 63:1572-1575; Wadia et al., J. Neuroscience, 1998, 18: 932-947; Carlile et al., 2000, Molecular Pharmacology, 57:2-12) for further details of culture and treatment). […]
as §3, §1

[6] = apoptosis initiating insult: Serum and NGF Withdrawal

Substance: phosphatidic acid [PA]
- PA Reduces Decreases In Mitochondrial Membrane Potential ([1]; apoptosis initiating insult: Ceramide, dyes TMRM and CMTMR, listed as phosphatidic acid): reduces
- PA Reduces Decreases In Mitochondrial Membrane Potential ([1]; apoptosis initiating insult: Rotenone, dyes TMRM and CMTMR): Yes - FIG. 4C
- PA Reduces Decreases In Mitochondrial Membrane Potential ([1]; apoptosis initiating insult: Rotenone, dyes TMRM and CMTMR, listed as phosphatidic acid): reduces
- PA Reduces Decreases In Mitochondrial Membrane Potential [1, 6]: Yes
- increase of cell survival by varying concentrations of phosphatidic acid ([2]; after exposure to 0.1 mM H2O2 which kills about 60% of the cells (FIG. 3C)): does not substantially increase
- PA reduced apoptosis ([2]; apoptosis initiated by peroxide or atractyloside, 2 to 30 μM PA): not
- PA Increases Survival ([2]; apoptosis initiating insult: Atractyloside, 24 hours): No
- PA Increases Survival ([2]; apoptosis initiating insult: Ceramide (C2-ceramide), 24 hours): Yes - FIG. 2A
- PA Increases Survival ([2]; apoptosis initiating insult: Ceramide (C2-ceramide), 24 hours, listed as Phosphatidic acid): increase cell survival
- PA Increases Survival ([2]; apoptosis initiating insult: Peroxide (H2O2), 24 hours, listed as phosphatidic acid): does not alter survival
- PA Increases Survival ([2]; apoptosis initiating insult: Rotenone, 24 hours, listed as Phosphatidic acid): increase cell survival
- PA Increases Survival [2, 6]: Yes - FIG. 3B
- PA Increases Survival ([2]; apoptosis initiating insult: Serum and NGF Withdrawal, listed as Phosphatidic acid): increase cell survival
- PA Decreases Nuclei With Chromatin Condensation [3]: Yes
- PA Increases Survival [4]: Yes
- PA Increases Survival ([4]; listed as Phosphatidic acid): increase cell survival
- PA Decreases Nuclei With Chromatin Condensation ([5]; apoptosis initiating insult: Ceramide): Yes
- PA Decreases Nuclei With Chromatin Condensation ([5]; apoptosis initiating insult: Rotenone): Yes
- PA Decreases Nuclei With Chromatin Condensation [5, 6]: Yes
